Patent US5990160A, “Use of tropolone derivatives as inhibitors of the enzyme inositol monophosphatase” (Gruppo Lepetit, SpA, priority 1995, dated 1999)
“Also recorded” adds a separate entry of the source.

Columns and labels:
[1] = biological target: T1, inositol monophosphatase (IMPase) (Bos taurus, UniProt P20456); assay: Inhibition of inositol monophosphatase (IMPase) enzyme activity, liberated phosphate by molybdate coloration; format: biochemical, animal; settings: 4 mM 2-glycerolphosphate, 5 μg/ml IMPase, 50 mM Tris-HCl pH 7.5, 2 mM magnesium chloride, 0.1 mM EGTA, 30 minutes; read-out: IC50 (molar amount of inhibitor required to inhibit the enzyme activity by 50%)
T1 sequence (P20456 1-277): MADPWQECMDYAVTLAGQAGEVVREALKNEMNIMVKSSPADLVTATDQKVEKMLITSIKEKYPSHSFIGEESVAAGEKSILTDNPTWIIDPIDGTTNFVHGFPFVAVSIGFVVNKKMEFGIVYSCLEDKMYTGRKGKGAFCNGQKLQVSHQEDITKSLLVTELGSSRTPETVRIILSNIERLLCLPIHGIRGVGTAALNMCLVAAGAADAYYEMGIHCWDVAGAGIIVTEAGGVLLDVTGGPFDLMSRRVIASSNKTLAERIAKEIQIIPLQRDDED
Excerpt: For determining the activity of the compounds of formula I, IMPase with a purity higher than 90% as judged by SDS-PAGE (sodium dodecyl sulphate polyacrylamide gel electrophoresis) is purified as described in P. D. Pelton and A. J. Ganzhorn, Journal Biolog. Chem., 267, 1992, pp. 5916-5920. The enzyme can be purified from animal brain or from recombinant E. coli strains expressing animal IMPase. Although crude enzyme preparations can also be used, it is preferable to use purified enzyme. The purified enzyme routinely has a specific activity of 25 μmol of Pi/min/mg of protein as determined in a standard assay (P. V. Attwood et al., Biochem. Jour., 1988, 253, pp. 387-394) with 4 mM 2-glycerolphosphate as substrate.
The enzyme activity may be determined according to A. J. Ganzhorn and M. C. Chanal, Biochem., 1990, 29; the reaction mixture contains 50 mM Tris-HCl, pH 7.5, 2 mM magnesium chloride and 0.1 mM EGTA. Then, 5 μg/ml of enzyme IMPase and 4 mM of 2-glycerolphosphate substrate are added to the reaction mixture; alternatively, it is also possible to add the substrate directly into the reaction mixture, before adding the enzyme.
The reaction is considered terminated after 30 minutes from the addition of the substrate or the enzyme (depending on which one is added later); the liberated phosphate is determined by molybdate coloration (P. V. Attwood et al., Biochem. Jour., 1988, 253, pp. 387-394) at 350 nm with a Shimadzu spectrophotometer UV 2100.
The enzyme reaction is performed either in the absence or in the presence of various concentrations of the compounds of formula I, to determine the molar amount of inhibitor required to inhibit the enzyme activity by 50% (IC50).

[2] = cited from earlier work
bipolar disorder / mania = settings: cited from earlier work
inositol monophosphatase = settings: cited from earlier work

IC50 [1]	Compound	structural lesions in kidney ([2]; after chronic lithium treatment, especially in patients who have experienced lithium toxicity)	adverse effects common to lithium therapy ([2]; lithium therapy)	occurrence of polyuria-polydipsia syndrome ([2]; lithium treatment)	time it takes to exert anti-manic effect (bipolar disorder / mania; acute bipolar disorder)	anti-manic and anti-depressive therapeutic effect (bipolar disorder / mania; preferably employed as lithium carbonate)	inhibition of inositol monophosphatase activity (inositol monophosphatase)
~40 µM	O=C(O)c1cc(O)c(O)c(=O)c(O)c1 [puberulic acid, 3,4,6-trihydroxy-5-oxo-1,3,6-cycloheptatriene-1-carboxylic acid]	–	–	–	–	–	–
~4 µM	O=C1OC(=O)c2c1cc(O)c(O)c(O)c2=O [puberulonic acid, 3,4,6-trihydroxy-5-oxo-1,3,6-cycloheptatriene-1,7-dicarboxylic acid anhydride]	–	–	–	–	–	–

Compound	IC50 [1]	structural lesions in kidney ([2]; after chronic lithium treatment, especially in patients who have experienced lithium toxicity)	adverse effects common to lithium therapy ([2]; lithium therapy)	occurrence of polyuria-polydipsia syndrome ([2]; lithium treatment)	time it takes to exert anti-manic effect (bipolar disorder / mania; acute bipolar disorder)	anti-manic and anti-depressive therapeutic effect (bipolar disorder / mania; preferably employed as lithium carbonate)	inhibition of inositol monophosphatase activity (inositol monophosphatase)
lithium	~1250 µM	interstitial fibrosis, tubular atrophy and glomerular sclerosis	tremor, weight gain, diarrhea and skin rash; also recorded: transient leukocytosis; also recorded: can cause patients with a borderline thyroid reserve to become clinically hypothyroid; also recorded: can decompensate cardiac status due to shifts in fluids and electrolytes	up to 60 % of treated patients	7 to 10 days	alleviating manic symptoms, normalizing the mood of manic patients	inhibits the activity of said enzyme
